Measurements reported in patent US20070249011A1, “Method for Screening Fungus-Specific Antimicrobial Agent and Kit Therefor” (priority 2004, published 2007).

Experiments:
Assay type in all cases: cell-based, Saccharomyces cerevisiae
[1] = test system: hog1 mutant strain introducing pYES2-HIK1; assay: Reagent sensitivity by plate culture, hog1 mutant strain introducing pYES2-HIK1; details: 25 ppm fludioxonil, 25 ppm iprodione, 50 ppm chloroneb; SG plates, 30° C., 60 hours (FIG. 7A)
Text: (§1) A suspension of a control yeast cell introducing pYES2-HIK1 therein (uppermost rows), a suspension of a hog1 mutant strain cell introducing pYES2-HIK1 therein (second rows), a suspension of an ssk1 mutant strain cell introducing pYES2-HIK1 therein (third rows), a suspension of a ste11 mutant strain cell introducing pYES2-HIK1 therein (fourth rows), a suspension of a control yeast cell introducing pYES2 therein (fifth rows), a suspension of a hog1 mutant strain cell introducing pYES2-HIK1 therein (sixth rows), a suspension of an ssk1 mutant strain cell introducing pYES2-HIK1 therein (seventh rows), and a suspension of a ste11 mutant strain cell introducing pYES2-HIK1 therein (lowermost rows) were added (5 μl each) dropwise at 9 mm spacings (from the left, 10^7, 10^6, 10^5, and 10^4/ml) in order from the uppermost rows of plates of 90 mm in diameter containing a variety of reagents, followed by culture at 30° C. for 60 hours (or 96 hours for NaCl). […] A suspension of a hog1 mutant strain cell introducing pCLΔ-HOG1 and pYES2-HIK1 therein (uppermost rows), a suspension of a hog1 mutant strain cell introducing pCLΔ and pYES2-HIK1 therein (second rows), a suspension of an ssk1 mutant strain cell introducing pCLΔ-SSK1 and pYES2-HIK1 therein (third rows), and a suspension of an ssk1 mutant strain cell introducing pCLΔ and pYES2-HIK1 therein (lowermost rows) were added (5 μl each) dropwise at 9 mm spacings (from the left, 10 ^7, 10^6, 10^5, and 10^4/ ml) in order from the uppermost rows of plates of 90 mm in diameter containing a variety of reagents, followed by culture at 30° C. for 60 hours (or 96 hours for NaCl). The reagents were added to each SG medium so that 25 ppm fludioxonil, 25 ppm iprodione, 50 ppm chloroneb, and 0.5 M NaCl were contained in order from the second leftmost plate; and
(§2) Reagent sensitivity was analyzed by plate culture and liquid culture. In the plate culture, strains were precultured overnight in 5 ml of SD/-Ura and then collected, followed by washing with 10 ml of SG/-Ura. […]

[2] = test system: strain introducing pYES2-hik1-D1153E; assay: Reagent sensitivity by plate culture, yeast expressing Hik1-D1153E (nonfunctional response regulator domain); details: 25 ppm fludioxonil, 25 ppm iprodione, 50 ppm chloroneb; SG plates, 30° C., 72 hours (FIG. 6B)
Experimental: (§3) The reagents were added to each SG medium so that 25 ppm fludioxonil, 25 ppm iprodione, 50 ppm chloroneb, and 0.5 M NaCl were contained in order from the second leftmost plate;
(§4) Reagent sensitivity was analyzed by plate culture and liquid culture. In the plate culture, strains were precultured overnight in 5 ml of SD/-Ura and then collected, followed by washing with 10 ml of SG/-Ura. The resulting strains were cultured for 8 hours to 10 hours in 10 ml of SG/-Ura, followed by OD600 measurement. They were diluted to 10^7 cells/ml, 10^6 cells/ml, 10^5 cells/ml, and 10^4 cells/ml, and 5 μl each thereof was added dropwise onto SG/-Ura plates supplemented with a variety of reagents, and cultured for 60 hours to 240 hours. In the liquid culture, strains were precultured overnight in 5 ml of SD/-Ura and then collected, followed by washing with 10 ml of SG/-Ura. The resulting strains were cultured for 8 hours to 10 hours in 10 ml of SG/-Ura, followed by OD600 measurement. They were added at OD600=0.01 to 300-ml Erlenmeyer flasks accommodating 50 ml of SG/-Ura containing a variety of reagents. After shaking by spinning at 160 rpm and 27° C., sampling was performed after 12, 15, 18, 21, 24, 33, 36, and 39 hours, followed by OD600 measurement. A growth curve was created to calculate a doubling time.
(§5) (2) Mutagenized HIK1 was prepared with Mutan-Express Km kit (TAKARA SHUZO) using synthetic DNAs for mutagenesis (HK-H736V: 5′-[…]-3′ (SEQ ID NO: 2) and HK-D1153E: 5′-[…]-3′ (SEQ ID NO: 3)). Each mutagenized HIK1 was cloned into the BamHI site of pYES2 to prepare pYES2-hik1-H736V and […]. […]

[3] = test system: ste11 mutant strain introducing pYES2-HIK1; assay: Reagent sensitivity by plate culture, ste11 mutant strain introducing pYES2-HIK1; details: 25 ppm fludioxonil, 25 ppm iprodione, 50 ppm chloroneb; SG plates, 30° C., 60 hours (FIG. 7A)
Text: as §1, §2

pYES2-HIK1 transformant = assay: Reagent sensitivity by plate culture, HIK1-expressing yeast; details: for concentration at which the effect was saturated / growth inhibition in the presence of the reagent: SG plates; for concentration at which the effect was saturated: GAL1 expression-inducing conditions (FIG. 5B); for growth inhibition in the presence of the reagent: GAL1 expression-inducing conditions, 30° C., 60 hours, 5-100 ppm (FIG. 5B)
[4] = test system: ssk1 mutant strain introducing pYES2-HIK1; assay: Reagent sensitivity by plate culture, ssk1 mutant strain introducing pYES2-HIK1; details: 25 ppm fludioxonil, 25 ppm iprodione, 50 ppm chloroneb; SG plates, 30° C., 60 hours (FIG. 7A)
Text: as §1, §2

ATCC201388 [pYES2-HIK1] = assay: Reagent sensitivity by liquid culture (doubling time), HIK1-expressing yeast; details: 25 ppm reagent, liquid culture in SG/-Ura (GAL1 expression-inducing conditions), 27° C., 160 rpm, average ± standard deviation
[5] = test system: strain introducing pYES2-hik1-H736V; assay: Reagent sensitivity by plate culture, yeast expressing Hik1-H736V (nonfunctional histidine kinase domain); details: 25 ppm fludioxonil, 25 ppm iprodione, 50 ppm chloroneb; SG plates, 30° C., 72 hours (FIG. 6B)
Experimental: as §3, §4, §5

ATCC201388 [pYES2] = assay: Reagent sensitivity by liquid culture (doubling time), vector-only control yeast; details: 25 ppm reagent, liquid culture in SG/-Ura (GAL1 expression-inducing conditions), 27° C., 160 rpm, average ± standard deviation
pYES2 transformant = assay: Reagent sensitivity by plate culture, vector-only control yeast
[6] = SG plates, GAL1 expression-inducing conditions, 30° C., 60 hours, 5-100 ppm (FIG. 5B)
[7] = all the strains (control, hog1, ssk1, ste11 mutant) introducing pYES2, 25 ppm fludioxonil, 25 ppm iprodione, 50 ppm chloroneb (FIG. 7A)

| Structure (SMILES) | sensitivity to the reagent [1] | sensitivity to the reagent [2] | sensitivity to the reagent [3] | concentration at which the effect was saturated (pYES2-HIK1 transformant) [ppm] | growth inhibition in the presence of the reagent (pYES2-HIK1 transformant) | sensitivity to the reagent [4] | doubling time (ATCC201388 [pYES2-HIK1]) [h] | doubling time (ATCC201388 [pYES2-HIK1]; listed as fludioxonil) [h] | sensitivity to the reagent [5] | doubling time (ATCC201388 [pYES2]) [h] | doubling time (ATCC201388 [pYES2]; listed as fludioxonil) | sensitivity to the reagent (pYES2 transformant; [6]) | sensitivity to the reagent (pYES2 transformant; [7]) | doubling time (ATCC201388 [pYES2-HIK1]; listed as chloroneb) [h] | doubling time (ATCC201388 [pYES2]; listed as chloroneb) | difference in sensitivity between the pYES2-HIK1 transformant and the pYES2 transformant (pYES2-HIK1 transformant; expression-inducing conditions, 0.25 ppm, cultured for 240 hours (FIG. 5B)) | doubling time (ATCC201388 [pYES2-HIK1]; listed as iprodione) [h] | doubling time (ATCC201388 [pYES2]; listed as iprodione) |
| --- | --- | --- | --- | --- | --- | --- | --- | --- | --- | --- | --- | --- | --- | --- | --- | --- | --- | --- |
| N#Cc1c[nH]cc1-c1cccc2c1OC(F)(F)O2 [Fludioxonil, fludioxonil] | did not exhibit sensitivity | hardly exhibited sensitivity | exhibited sensitivity | 5 | exhibited growth inhibition | did not exhibit sensitivity | 4.25 ± 0.20 | 4.25 | hardly exhibited sensitivity | 2.25 ± 0.06 | around 2.2 hours | no sensitivity | no sensitivity | – | – | – | – | – |
| COc1cc(Cl)c(OC)cc1Cl [Chloroneb, chloroneb] | did not exhibit sensitivity | hardly exhibited sensitivity | exhibited sensitivity | 50 | exhibited growth inhibition | did not exhibit sensitivity | 2.90 ± 0.11 | – | hardly exhibited sensitivity | 2.17 ± 0.08 | – | no sensitivity | no sensitivity | 2.90 | around 2.2 hours | – | – | – |
| C[C@@H]1C[C@@H]([C@H](O)CC2CC(=O)NC(=O)C2)C(=O)[C@@H](C)C1 [cycloheximide] | – | – | – | – | – | – | – | – | – | – | – | – | – | – | – | No difference in sensitivity | – | – |
| CC(C)NC(=O)N1CC(=O)N(c2cc(Cl)cc(Cl)c2)C1=O [Iprodione, iprodione] | did not exhibit sensitivity | hardly exhibited sensitivity | exhibited sensitivity | 25 | exhibited growth inhibition | did not exhibit sensitivity | 3.12 ± 0.10 | – | hardly exhibited sensitivity | 2.12 ± 0.06 | – | no sensitivity | no sensitivity | – | – | – | 3.12 | around 2.2 hours |
